In data set [1] the test system is H1299 cells. As to the kind of experiment: H1299 human NSCLC xenograft model in nu/nu mice. To be noted: for median tumor volume (MTV) of survivors: D74, gemcitabine 120 mg/kg (five TFS), docetaxel 30 mg/kg (two D74 survivors); for tumor-free survival (TFS): 74 days post first treatment, CRLX101 10 mg/kg qwk×3, gemcitabine 120 mg/kg q3d×4, topotecan 12 mg/kg q4d×3. On the technique in general: Xenograft models place foreign cells or tissue in a host animal.
Description: (§1) Animals were randomly divided into seven groups and treatment was started on day-15 post implantation, when the mean tumor volume was approximately 115 mm^3.
(§2) Body weight was measured daily on Days 1-5, then twice weekly until the completion of the study. Tumor volume was measured twice weekly and each animal was euthanized when the calculated tumor volume reached the 2000 mm^3 endpoint, or on day-88 post implantation, whichever came first.

Data set [2] has as its system H1299 cells. To be noted: mouse, in vivo.
Description: as §1, §2
For data set [3], the system named is human ovarian carcinoma A2780 cells. To be noted: 72 h, MTS.
Description: The human ovarian carcinoma A2780 cells were obtained from the American Type Culture Collection. […] The medium was replaced with fresh medium containing the test compound at concentrations ranging from 0.01 nmol/L to 1 μmol/L. Triplicate wells per plate were treated at each concentration. Controls were vehicle-treated cells and medium only blank. […] MTS assay reagent was prepared by diluting CellTiter 96 AQueous One Solution (Promega) 5-fold into PBS/glucose (4.5 g/L). Cell culture medium was aspirated and 100 μL of MTS reagent were added to each well. Plates were incubated at 37° C. for 1 h. The plates were shaken for 5 min and the absorbance was measured at 485 nm using a [sequence]uor Plus plate reader (Tecan). The percentage of cell survival was calculated relative to untreated cells, and IC50s were estimated from the graphs of log dose (nmol/L) versus % cell survival (GraphPad Prizm).

Experimental findings from patent publication US20130029909A1, “TREATMENT OF CANCER” (priority 2009, published 2013) are described below.

The term IC50 denotes the concentration at which inhibition is half-maximal. Read a low IC50 as greater potency in that assay.

Read-outs that look alike come from different tables or passages of the source.

Take `CC(=O)O[C@@]12CO[C@@H]1C[C@H](O)[C@@]1(C)C(=O)[C@H](O)C3=C(C)[C@@H](OC(=O)[C@H](O)[C@@H](NC(=O)OC(C)(C)C)c4ccccc4)C[C@@](O)([C@@H](OC(=O)c4ccccc4)[C@H]21)C3(C)C` [Docetaxel, docetaxel]: in the data set with H1299 cells [1], the “median tumor volume (MTV) of survivors” value amounted to 302 mm3. Besides, in the data set with H1299 cells [1] (docetaxel 30 mg/kg on D21), the “group mean body weight loss” value was found to be 9.3%. The molecule also gave a survival with H1299 cells [1] (docetaxel 30 mg/kg qwk×3, D74, no TFS) of 20%. The “BW Nadir (lowest group mean body weight, as % change from Day 1)” value in the data set on H1299 cells [1] (same regimens as E168, '—' indicates that no decrease in mean body weight was observed) is −9.3%.

On to `C#Cc1cccc(Nc2ncnc3cc(OCCOC)c(OCCOC)cc23)c1` [Erlotinib, erlotinib], for which the “BW Nadir (lowest group mean body weight, as % change from Day 1)” value in the data set on H1299 cells [2] is −2.9%.

On to `Nc1ccn([C@@H]2O[C@H](CO)[C@@H](O)C2(F)F)c(=O)n1` [Gemcitabine, gemcitabine], for which the “BW Nadir (lowest group mean body weight, as % change from Day 1)” value in the data set with H1299 cells [2] is reported as −2.3%. In addition, in the data set with H1299 cells [1], the “tumor-free survival (TFS)” value stood at 50% and the “median tumor volume (MTV) of survivors” value came to 0 mm3.

`CCc1c2c(nc3ccc(O)cc13)-c1cc3c(c(=O)n1C2)COC(=O)[C@]3(O)CC` [SN-38, 20(S)-7-ethyl-10-hydroxycamptothecin] showed a 50% inhibitory concentration (IC50) in data set [3] of 2.44 nM.

As to `CC[C@@]1(O)C(=O)OCc2c1cc1n(c2=O)Cc2cc3c(CN(C)C)c(O)ccc3nc2-1` [Topotecan, topotecan], the “BW Nadir (lowest group mean body weight, as % change from Day 1)” value in the data set on H1299 cells [2] is given as −0.6%. In addition, in the data set with H1299 cells [1], the “tumor-free survival (TFS)” value is listed as 10%.
